Where “and” joins values, the source holds several entries; their conditions need not be identical. Equal entries are not always repeated. Toxic doses and inconclusive results are not listed.
Tested on: CD2F1 mice, L1210 leukemia ip, survival T/C
Assay: NCI In Vivo Anticancer Drug Screen. Data for tumor model L1210 Leukemia (intraperitoneal) in CD2F1 (CDF1) mice
Conditions: endpoint: mean survival time, higher = longer survival
Outline: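 In this screen, transplantable tumors were grown in mice given either the compound or its vehicle. Results were expressed as the treated measurement relative to the control measurement.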

[1] = dose: 100.0 mg/kg/injection, schedule: Q01DX009 (ip), vehicle: saline with Tween-80
[2] = dose: 100.0 mg/kg/injection, schedule: Q04DX003 (ip), vehicle: saline with Tween-80
[3] = dose: 200.0 mg/kg/injection, schedule: Q04DX003 (ip), vehicle: saline with Tween-80
[4] = dose: 400.0 mg/kg/injection, schedule: Q04DX003 (ip), vehicle: saline with Tween-80
[5] = dose: 12.5 mg/kg/injection, schedule: Q01DX009 (ip), vehicle: saline with Tween-80
[6] = dose: 25.0 mg/kg/injection, schedule: Q01DX009 (ip), vehicle: saline with Tween-80
[7] = dose: 50.0 mg/kg/injection, schedule: Q04DX002 (ip), vehicle: saline with Tween-80
[8] = dose: 200.0 mg/kg/injection, schedule: Q04DX003 (ip), vehicle: saline
[9] = dose: 400.0 mg/kg/injection, schedule: Q04DX003 (ip), vehicle: saline
[10] = dose: 100.0 mg/kg/injection, schedule: Q04DX003 (ip), vehicle: saline

NC(=O)NC(=S)NC(=O)c1ccccc1
T/C [1]: 111 % of control | T/C [2]: 102 % of control | T/C (dose: 200.0 mg/kg/injection, schedule: Q01DX009 (ip), vehicle: saline with Tween-80): 98 % of control | T/C [3]: 98 % of control | T/C (dose: 400.0 mg/kg/injection, schedule: Q01DX009 (ip), vehicle: saline with Tween-80): 98 % of control | T/C [4]: 101 % of control

Cc1cccc(C(=O)C=C(C(F)(F)F)C(F)(F)F)c1
T/C [5]: 103 % of control | T/C [6]: 113 % of control

O=C([O][Sb]([O]C(=O)C(Cl)Cl)([c]1ccccc1)([c]1ccccc1)[c]1ccccc1)C(Cl)Cl
T/C [2]: 92 % of control | T/C [3]: 88 % of control

O=C(Nc1ccc([N+](=O)[O-])cc1)OCc1ccccc1
T/C [7]: 104 % of control | T/C (dose: 100.0 mg/kg/injection, schedule: Q04DX002 (ip), vehicle: saline with Tween-80): 100 % of control | T/C (dose: 200.0 mg/kg/injection, schedule: Q04DX002 (ip), vehicle: saline with Tween-80): 108 % of control

O=C(CCC(O)(C(=O)c1ccccc1)c1ccccc1)c1ccccc1 (stereo not drawn)
T/C [2]: 91 % of control | T/C [3]: 94 % of control | T/C [4]: 88 % of control

CN(C)NC(=O)/C=C\C(=O)O
T/C (dose: 100.0 mg/kg/injection, schedule: Q01DX009 (ip), vehicle: saline): 101 % of control | T/C (dose: 200.0 mg/kg/injection, schedule: Q01DX009 (ip), vehicle: saline): 101 % of control

CC(=O)OCc1ccc(/C=N/Nc2ccc([N+](=O)[O-])cc2[N+](=O)[O-])cc1Br
T/C [8]: 108 % of control | T/C [9]: 100 % of control

Cc1ncc(CO)c(C2NOCc3nscc32)c1O (stereo not drawn)
T/C (dose: 18.0 mg/kg/injection, schedule: Q01DX009 (ip), vehicle: Klucel (hydroxypropylcellulose) (HPC)): 90 % of control | T/C (dose: 28.0 mg/kg/injection, schedule: Q01DX009 (ip), vehicle: Klucel (hydroxypropylcellulose) (HPC)): 89 % of control

C[n+]1ccc(Nc2ccc(NC(=O)c3ccc(Nc4cc[n+](C)c5ccc([N+](=O)[O-])cc45)cc3)cc2)cc1
T/C (dose: 1.0 mg/kg/injection, schedule: Q01DX009 (ip), vehicle: water): 103 % of control | T/C (dose: 2.0 mg/kg/injection, schedule: Q01DX009 (ip), vehicle: water): 110 % of control | T/C (dose: 4.0 mg/kg/injection, schedule: Q01DX009 (ip), vehicle: water): 116 % of control | T/C (dose: 16.0 mg/kg/injection, schedule: Q01DX009 (ip), vehicle: water): 174 % of control | T/C (dose: 32.0 mg/kg/injection, schedule: Q01DX009 (ip), vehicle: water): 223 % of control | T/C (dose: 50.0 mg/kg/injection, schedule: Q04DX003 (ip), vehicle: saline): 162 % of control | T/C [10]: 186 % of control | T/C [8]: 201 % of control

CC(=O)NCNC(C)=O
T/C (dose: 100.0 mg/kg/injection, schedule: Q01DX001 (ip), vehicle: saline): 100 % of control | T/C (dose: 200.0 mg/kg/injection, schedule: Q01DX001 (ip), vehicle: saline): 93 % of control | T/C (dose: 400.0 mg/kg/injection, schedule: Q01DX001 (ip), vehicle: saline): 100 % of control

N#CC(CCN1CCCCC1)(c1ccccc1)c1ccccc1
T/C [10]: 97 % of control | T/C [8]: 102 % of control | T/C [9]: 97 % of control

CCOC(=O)/C=C/c1cccc([N+](=O)[O-])c1
T/C (dose: 100.0 mg/kg/injection, schedule: Q01DX001 (ip), vehicle: saline with Tween-80): 101 % of control | T/C (dose: 200.0 mg/kg/injection, schedule: Q01DX001 (ip), vehicle: saline with Tween-80): 101 % of control | T/C (dose: 400.0 mg/kg/injection, schedule: Q01DX001 (ip), vehicle: saline with Tween-80): 108 % of control

[N-]=[N+]=CC(=O)NCC(=O)NCCO
T/C (dose: 50.0 mg/kg/injection, schedule: Q01DX001 (ip), vehicle: other): 101 % of control | T/C (dose: 100.0 mg/kg/injection, schedule: Q01DX001 (ip), vehicle: other): 103 % of control | T/C (dose: 200.0 mg/kg/injection, schedule: Q01DX001 (ip), vehicle: other): 106 % of control | T/C (dose: 200.0 mg/kg/injection, schedule: Q01DX009 (ip), vehicle: other): 103 % of control | T/C (dose: 400.0 mg/kg/injection, schedule: Q01DX001 (ip), vehicle: other): 109 % of control | T/C (dose: 600.0 mg/kg/injection, schedule: Q01DX009 (ip), vehicle: other): 121 % of control | T/C (dose: 1000.0 mg/kg/injection, schedule: Q01DX009 (ip), vehicle: other): 114 % of control

NC(=O)c1ncn(C2OC(COP(=O)(O)O)C(O)C2O)n1 (stereo not drawn)
T/C (dose: 12.5 mg/kg/injection, schedule: Q01DX005 (ip), vehicle: water): 98 % of control | T/C (dose: 25.0 mg/kg/injection, schedule: Q01DX005 (ip), vehicle: water): 101 % of control | T/C (dose: 50.0 mg/kg/injection, schedule: Q01DX005 (ip), vehicle: water): 102 % of control | T/C (dose: 100.0 mg/kg/injection, schedule: Q01DX005 (ip), vehicle: water): 98 % of control | T/C (dose: 200.0 mg/kg/injection, schedule: Q01DX005 (ip), vehicle: water): 102 % of control

CC(=Nc1ccccc1)C1=C(O)C(Cc2ccccc2)NC1=O (stereo not drawn)
T/C [5]: 98 % of control and 103 % of control | T/C (dose: 12.5 mg/kg/injection, schedule: Q04DX002 (ip), vehicle: saline with Tween-80): 100 % of control | T/C [6]: 102 % of control and 111 % of control | T/C (dose: 25.0 mg/kg/injection, schedule: Q04DX002 (ip), vehicle: saline with Tween-80): 103 % of control | T/C (dose: 50.0 mg/kg/injection, schedule: Q01DX009 (ip), vehicle: saline with Tween-80): 118 % of control and 108 % of control | T/C [7]: 103 % of control | T/C [1]: 110 % of control

Reference: PubChem BioAssay AID256 (DTP/NCI, 2004)
